Here are results for 31 compounds from patent US9790217B2, “Pyridinyloxy- and phenyloxy-pyrazolyl compounds” (Hoffmann-La Roche Inc., priority 2014, dated 2017).

In one assay the target is human CYP11B2 (Homo sapiens (Human), UniProt P19099). In words: G-402 cellular enzyme assay, human CYP11B2 (aldosterone release, HTRF). It counts as cell-based. The note with it: G-402 cells expressing human CYP11B2; 1 μM Deoxycorticosterone. From the text:
(§1) Herein we identified the use of the G-402 cell line as a host cell to ectopically express (transiently or stably) enzymes of the CYP11 family. Specifically we developed stable G-402 cells expressing ectopically human CYP11B1, human CYP11B2, human CYP11A1, cynmolgus CYP11B1 or cynomolgus CYP11B2 enzyme activity. Importantly the identified cell line G-402 expresses co-factors (adrenodoxin and adrenodoxin reductase) important for the activity of the CYP11 family and no relevant enzyme activity of the CYP11 family (in comparison to H295R cells) was detected in these cells. Therefore the G-402 cell line is uniquely suited as a host cell for the ectopic expression of enzymes from the CYP11 family.
(§2) G-402 cells can be obtained from ATCC (CRL-1440) and were originally derived from a renal leiomyoblastoma.
(§3) The expression plasmids contains the ORF for either human/cyno CYP11B1 or CYP11B2 under the control of a suitable promoter (CMV-promoter) and a suitable resistance marker (neomycin). Using standard techniques the expression plasmid is transfected into G-402 cells and these cells are then selected for expressing the given resistance markers. Individual cell-clones are then selected and assessed for displaying the desired enzymatic activity using 11-Deoxycorticosterone (Cyp11B2) or 11-Deoxycortisol (Cyp11B1) as a substrate.
(§4) G-402 cells expressing CYP11 constructs were established as described above and maintained in McCoy's 5a Medium Modified, ATCC Catalog No. 30-2007 containing 10% FCS and 400 μg/ml G418 (Geneticin) at 37° C. under an atmosphere of 5% CO2/95% air. Cellular enzyme assays were performed in DMEM/F12 medium containing 2.5% charcoal treated FCS and appropriate concentration of substrate (0.3-10 uM 11-Deoxycorticosterone, 11-Deoxycortisol or Corticosterone). For assaying enzymatic activity, cells were plated onto 96 well plates and incubated for 16 h. An aliquot of the supernatant is then transferred and analyzed for the concentration of the expected product (Aldosterone for CYP11B2; Cortisol for CYP11B1). The concentrations of these steroids can be determined using HTRF assays from CisBio analyzing either Aldosterone or Cortisol.
(§5) Inhibition of the release of produced steroids can be used as a measure of the respective enzyme inhibition by test compounds added during the cellular enzyme assay. The dose dependent inhibition of enzymatic activity by a compound is calculated by means of plotting added inhibitor concentrations (x-axes) vs. measured steroid/product level (y-axes). The inhibition is then calculated by fitting the following 4-parameter sigmoidal function (Morgan-Mercer-Flodin (MMF) model) to the raw data points using the least squares method:
(§6) [formula] wherein, A is the maximum y value, B is the EC50 factor determined using XLFit, C is the minimum y value and D is the slope value.
(§7) EC50 values for compounds claimed herein were tested with the G402-based assay system described. Cyp11B2 enzyme activity was tested in presence of 1 μM Deoxycorticosterone and variable amounts of inhibitors; Cyp11B1 enzyme activity was tested in presence of 1 μM Deoxycortisol and variable amounts of inhibitors.
(In general: In TR-FRET formats the signal depends on donor and acceptor labels being close together.)

The target in another assay is human CYP11B1 (Homo sapiens (Human), UniProt P15538). In words: G-402 cellular enzyme assay, human CYP11B1 (cortisol release, HTRF). It is filed as cell-based. The conditions noted are these: G-402 cells expressing human CYP11B1; 1 μM Deoxycortisol.
Sequence of human CYP11B1 (P15538 25-503): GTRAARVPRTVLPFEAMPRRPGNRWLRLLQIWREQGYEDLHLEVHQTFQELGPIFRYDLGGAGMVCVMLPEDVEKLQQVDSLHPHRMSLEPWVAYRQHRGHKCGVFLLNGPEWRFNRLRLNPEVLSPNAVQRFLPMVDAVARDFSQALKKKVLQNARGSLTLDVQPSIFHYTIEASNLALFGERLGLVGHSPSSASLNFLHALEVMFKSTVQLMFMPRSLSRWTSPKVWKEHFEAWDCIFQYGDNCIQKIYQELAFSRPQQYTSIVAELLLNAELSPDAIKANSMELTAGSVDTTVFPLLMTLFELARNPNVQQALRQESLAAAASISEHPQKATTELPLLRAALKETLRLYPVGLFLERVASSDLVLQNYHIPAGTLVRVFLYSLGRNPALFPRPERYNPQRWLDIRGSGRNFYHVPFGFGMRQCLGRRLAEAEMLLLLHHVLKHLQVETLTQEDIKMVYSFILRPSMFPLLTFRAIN
From the text: as §1, §2, §3, §4, §5, §6, §7

Sequence of human CYP11B2 (P19099 25-503): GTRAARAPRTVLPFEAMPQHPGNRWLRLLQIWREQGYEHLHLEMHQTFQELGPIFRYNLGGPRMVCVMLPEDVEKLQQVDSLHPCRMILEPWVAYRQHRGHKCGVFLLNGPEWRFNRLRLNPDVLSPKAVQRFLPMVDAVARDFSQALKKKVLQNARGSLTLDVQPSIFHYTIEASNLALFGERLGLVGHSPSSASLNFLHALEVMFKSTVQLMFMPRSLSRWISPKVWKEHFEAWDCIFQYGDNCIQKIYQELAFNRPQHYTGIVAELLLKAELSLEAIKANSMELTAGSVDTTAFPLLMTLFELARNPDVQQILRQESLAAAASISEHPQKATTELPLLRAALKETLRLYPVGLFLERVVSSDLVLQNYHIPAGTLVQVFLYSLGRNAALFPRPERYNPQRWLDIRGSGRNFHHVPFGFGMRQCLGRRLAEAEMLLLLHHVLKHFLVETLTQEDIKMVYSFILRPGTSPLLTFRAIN

Usually EC50 stands for the midpoint of the concentration-response curve. A low value points to an effect from little substance. In the case of `CC(=O)N1CCC(Oc2cccc(-c3[nH]ncc3Oc3ccc(C#N)cc3)c2)C1` (racemic) [Example 58, (rac)-4-[[3-[3-(1-Acetylpyrrolidin-3-yl)oxyphenyl]-1H-pyrazol-4-yl]oxy]benzonitrile], the EC50 was found to be 215 nM on human CYP11B2 and 1510 nM at human CYP11B1.
With `CC(=O)N1CCCC(c2[nH]ncc2Oc2ccc(C#N)cc2)C1` (racemic) [Example 62, (rac)-4-[[3-(1-Acetylpiperidin-3-yl)-1H-pyrazol-4-yl]oxy]benzonitrile], the EC50 on human CYP11B2 turned out to be 370 nM; on human CYP11B1, 2280 nM.
As for `Cn1cc(C(=O)N2CCCC(c3[nH]ncc3Oc3ccc(C#N)cc3)C2)cn1` (racemic) [Example 63, (rac)-4-[[3-[1-(1-Methylpyrazole-4-carbonyl)piperidin-3-yl]-1H-pyrazol-4-yl]oxy]benzonitrile], the values for the EC50 at human CYP11B2 and at human CYP11B1 were 150 nM and 6470 nM, respectively.
The matching figures for `N#Cc1ccc(Oc2cn[nH]c2C2CCCN(C(=O)c3cccnc3)C2)cc1` (racemic) [Example 64, (rac)-4-[[3-[1-(Pyridine-3-carbonyl)piperidin-3-yl]-1H-pyrazol-4-yl]oxy]benzonitrile]: 405 nM and 8160 nM.
Taken in the same sequence, the figures for `N#Cc1ccc(Oc2cn[nH]c2C2CCCN(C(=O)c3ccccn3)C2)cc1` (racemic) [Example 65, (rac)-4-[[3-[1-(Pyridine-2-carbonyl)piperidin-3-yl]-1H-pyrazol-4-yl]oxy]benzonitrile] were 1410 nM and 5910 nM.
Turning to `Cn1cc(C(=O)N2CCCC(c3[nH]ncc3Oc3ccc(C#N)cc3F)C2)cn1` (racemic) [Example 89, (rac)-3-Fluoro-4-[[5-[1-(1-methylpyrazole-4-carbonyl)piperidin-3-yl]-1H-pyrazol-4-yl]oxy]benzonitrile], the EC50 on human CYP11B2 came out at 231 nM; on human CYP11B1, 7760 nM.
The matching figures for `N#Cc1ccc(Oc2cn[nH]c2C2CCCN(C(=O)c3cccnc3)C2)c(F)c1` (racemic) [Example 91, (rac)-3-Fluoro-4-[[3-[1-(pyridine-3-carbonyl)piperidin-3-yl]-1H-pyrazol-4-yl]oxy]benzonitrile]: 1260 nM and 9010 nM.
Taken in the same sequence, the figures for `Fc1cccc(-c2[nH]ncc2Oc2ccc(Cl)cc2)c1F` [Example 1, 4-(4-Chlorophenoxy)-5-(2,3-difluorophenyl)-1H-pyrazole] were 29.8 nM and 1030 nM.
The matching figures for `COc1ccc(Oc2cn[nH]c2-c2ccc(Cl)cc2)cc1` [Example 2, 3-(4-Chlorophenyl)-4-(4-methoxyphenoxy)-1H-pyrazole]: 463 nM and 1970 nM.
For the compound `Clc1ccc(Oc2cn[nH]c2-c2ccc(Cl)cc2)cc1` [Example 3, 4-(4-Chlorophenoxy)-3-(4-chlorophenyl)-1H-pyrazole], the EC50 on human CYP11B2 was 323 nM; at human CYP11B1 it was 1380 nM.
The matching figures for `COc1ccccc1-c1[nH]ncc1Oc1ccc(Cl)cc1` [Example 4, 4-(4-Chlorophenoxy)-3-(2-methoxyphenyl)-1H-pyrazole]: 0.1 nM and 1.3 nM.
Taken in the same sequence, the figures for `COc1ccc(-c2[nH]ncc2Oc2ccc(Cl)cc2)c(OC)c1` [Example 5, 4-(4-Chlorophenoxy)-3-(2,4-dimethoxyphenyl)-1H-pyrazole] were 2.5 nM and 11.6 nM.
The matching figures for `Clc1ccc(Oc2cn[nH]c2-c2ccccc2Cl)cc1` [Example 6, 4-(4-Chlorophenoxy)-5-(2-chlorophenyl)-1H-pyrazole]: 2.6 nM and 51.8 nM.
On to `FC(F)(F)Oc1ccccc1-c1[nH]ncc1Oc1ccc(Cl)cc1` [Example 7, 4-(4-Chlorophenoxy)-5-[2-(trifluoromethoxy)phenyl]-1H-pyrazole], for which the results for the half-maximal effective concentration (EC50) at human CYP11B2 and on human CYP11B1 were 24.4 nM and 861 nM, respectively.
The matching figures for `FC(F)Oc1ccccc1-c1[nH]ncc1Oc1ccc(Cl)cc1` [Example 8, 4-(4-Chlorophenoxy)-5-[2-(difluoromethoxy)phenyl]-1H-pyrazole]: 4 nM and 75.7 nM.
Taken in the same sequence, the figures for `Fc1ccccc1-c1[nH]ncc1Oc1ccc(Cl)cc1` [Example 9, 4-(4-Chlorophenoxy)-5-(2-fluorophenyl)-1H-pyrazole] were 7.9 nM and 167 nM.
The matching figures for `COc1ccc(Cl)cc1-c1[nH]ncc1Oc1ccc(Cl)cc1` [Example 10, 3-(5-Chloro-2-methoxyphenyl)-4-(4-chlorophenoxy)-1H-pyrazole]: 60.8 nM and 835 nM.
Regarding `Fc1cc(Cl)ccc1-c1[nH]ncc1Oc1ccc(Cl)cc1` [Example 11, 5-(4-Chloro-2-fluorophenyl)-4-(4-chlorophenoxy)-1H-pyrazole], the figures for the EC50 on human CYP11B2 and at human CYP11B1 were 45.8 nM and 433 nM, respectively.
The matching figures for `CS(=O)(=O)c1ccc(-c2[nH]ncc2Oc2ccc(Cl)cc2)cc1` [Example 12, 4-(4-Chlorophenoxy)-5-(4-methylsulfonylphenyl)-1H-pyrazole]: 26.4 nM and 600 nM.
The matching figures for `Fc1cc(C(F)(F)F)ccc1-c1[nH]ncc1Oc1ccc(Cl)cc1` [Example 13, 4-(4-Chlorophenoxy)-5-[2-fluoro-4-(trifluoromethyl)phenyl]-1H-pyrazole]: 408 nM and 2470 nM.
The matching figures for `FC(F)(F)c1ccc(-c2[nH]ncc2Oc2ccc(Cl)cc2)cc1` [Example 14, 4-(4-Chlorophenoxy)-5-[4-(trifluoromethyl)phenyl]-1H-pyrazole]: 2030 nM and 2670 nM.
Regarding `Fc1ccc(-c2[nH]ncc2Oc2ccc(Cl)cc2)c(F)c1` [Example 15, 4-(4-Chlorophenoxy)-5-(2,4-difluorophenyl)-1H-pyrazole], the values for the EC50 at human CYP11B2 and on human CYP11B1 were 18.6 nM and 159 nM, respectively.
Taken in the same sequence, the figures for `CS(=O)(=O)c1ccc(-c2[nH]ncc2Oc2ccc(C(F)(F)F)cc2)cc1` [Example 16, 5-(4-Methylsulfonylphenyl)-4-[4-(trifluoromethyl)phenoxy]-1H-pyrazole] were 84.5 nM and 1970 nM.
Taken in the same sequence, the figures for `CSc1ccc(-c2[nH]ncc2Oc2ccc(Cl)cc2)c(Cl)c1` [Example 17, 5-(2-Chloro-4-methylsulfanylphenyl)-4-(4-chlorophenoxy)-1H-pyrazole] were 60.8 nM and 522 nM.
For the compound `CS(=O)(=O)c1ccc(-c2[nH]ncc2Oc2ccc(C#N)cc2)cc1` [Example 18, 4-[[5-(4-Methylsulfonylphenyl)-1H-pyrazol-4-yl]oxy]benzonitrile], the EC50 amounted to 23.9 nM at human CYP11B2 and 462 nM on human CYP11B1.
Regarding `Clc1ccc(Oc2cn[nH]c2-c2ccccc2Cl)cn1` [Example 19, 2-Chloro-5-[[5-(2-chlorophenyl)-1H-pyrazol-4-yl]oxy]pyridine], the EC50 at human CYP11B2 turned out to be 113 nM; on human CYP11B1, 387 nM.
The matching figures for `Cc1ccc(Oc2cn[nH]c2-c2ccccc2Cl)cn1` [Example 20, 5-[[5-(2-Chlorophenyl)-1H-pyrazol-4-yl]oxy]-2-methylpyridine]: 311 nM and 3390 nM.
Turning to `Fc1cccc(Oc2cn[nH]c2-c2ccc(Cl)cc2Cl)n1` [Example 21, 2-[[5-(2,4-Dichlorophenyl)-1H-pyrazol-4-yl]oxy]-6-fluoropyridine], the EC50 came out at 101 nM on human CYP11B2 and 841 nM at human CYP11B1.
Taken in the same sequence, the figures for `Cc1cccc(Oc2c[nH]nc2-c2ccc(Cl)cc2Cl)n1` [Example 22, 2-[[3-(2,4-Dichlorophenyl)-1H-pyrazol-4-yl]oxy]-6-methylpyridine] were 42.1 nM and 611 nM.
Taken in the same sequence, the figures for `FC(F)(F)c1ccc(Oc2cn[nH]c2-c2ccccc2Cl)cc1` [Example 23, 5-(2-Chlorophenyl)-4-[4-(trifluoromethyl)phenoxy]-1H-pyrazole] were 26.8 nM and 723 nM.
As to `Fc1cc(Cl)ccc1Oc1cn[nH]c1-c1ccccc1Cl` [Example 24, 4-(4-Chloro-2-fluorophenoxy)-5-(2-chlorophenyl)-1H-pyrazole], the EC50 at human CYP11B2 was determined as 10.2 nM; on human CYP11B1, 350 nM.
